How the values were obtained:
[1] = test system: C57/B16 mice, elastase-perfused abdominal aorta; test: Elastase-perfusion mouse model of AAA, aortic histology; type: in vivo; settings: 50, 125, 250 mg/kg/day
Protocol: The aortas from several mice from each experimental group were perfusion fixed with 10% neutral-buffered formalin, removed, and placed in additional formalin for a minimum of 24 hours prior to processing for paraffin embedding. Following paraffin embedding, aortic specimens were cut into 5 μm sections and mounted on glass slides. Each specimen was stained with hematoxylin and eosin to evaluate inflammatory cell infiltration and Accustain® Elastic Stain kit to assess the degree of elastin degradation. Photomicrographs of serial sections were obtained using an Olympus BX60 light microscope equipped with CV12 video capture camera.
Representative aortas from each group were fixed in formalin following aortic harvest and processed into paraffin blocks. During harvest only the maximally dilated segment of the aorta was taken, and serial sections of the block were made to assure that the most dilated segment of aorta was imaged. These maximally dilated segments were stained with Hematoxylin and Eosin stains as well as an elastin highlighting stain (Verhoff-Von Giesen [VVG]).

[2] = test system: C57/B16 mice, elastase-perfused abdominal aorta; test: Elastase-perfusion mouse model of AAA, aortic diameter; type: in vivo; settings: for mean % ΔAD (increase in aortic diameter at 2 weeks): daily gavage in Cremophor, Mean±SE
Description: All mice used in the experiment were commercially obtained C57/B16 inbred strain mice. Throughout the experimental course, mice were allowed free access to food and water. Animals were housed in a controlled animal facility, and all mouse care and treatment occurred under approved protocols.
A total of 89 C57/B16 mice were subjected to transient perfusion of the abdominal aorta according to a protocol known in the art. Briefly, after sedation and preparation, the aorta was approached through a midline laparotomy. The infrarenal aorta was dissected and the diameter was measured under physiologic blood pressure. A segment of infrarenal aorta was isolated and a 5 minute perfusion of this segment was performed through an arteriotomy at 100 mmHg with a solution containing type I porcine pancreatic elastase (PPE 0.16 U/mL). All of the experiments were performed with a single PPE preparation derived from the same commercial source and lot.
Following aortic perfusion the arteriotomy was repaired, the laparotomy was closed and the animal was allowed to completely recover before returning to its standard housing.
Following aortic perfusion, animals were placed into one of 5 treatment groups. […] Three different doses of the agent were used, 50 mg/kg/day (n=17), 125 mg/kg/day (n=17), and 250 mg/kg/day (n=18). There were two mice in each group which died following aortic perfusion, and all others were available for analysis. Control animals (n=18) were similarly treated with daily gavage of the Cremophor diluent only. Of these mice, 16 survived the two weeks following aortic perfusion and underwent final aortic measurements and harvest. […] In this group, 4 mice died prior to the two week harvest, and all others were used in the analysis of aneurysm growth.
Two weeks following elastase perfusion, the mice were again anesthetized; the laparotomy incision was reopened and the final aortic diameter was measured in vivo prior to sacrifice. The animals were humanely sacrificed, and circulating blood and the entire perfused segment of aorta was harvested for RNA extraction, protein extraction or histology.

mADAM-10 or hADAM-10 = target: T1, mADAM-10 or hADAM-10 (UniProt O14672); test: ADAM-10 enzyme assay (fluorogenic peptide cleavage); type: biochemical;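 note: fluorescence from cleavage of a quenched 10-residue DABCYL/EDANS peptide by 5 nM enzyme in HEPES pH 8.0 buffer, 16 hr at room temperature, compounds serially diluted 100 µM to 0.5 nM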
T1 sequence (O14672 1-748): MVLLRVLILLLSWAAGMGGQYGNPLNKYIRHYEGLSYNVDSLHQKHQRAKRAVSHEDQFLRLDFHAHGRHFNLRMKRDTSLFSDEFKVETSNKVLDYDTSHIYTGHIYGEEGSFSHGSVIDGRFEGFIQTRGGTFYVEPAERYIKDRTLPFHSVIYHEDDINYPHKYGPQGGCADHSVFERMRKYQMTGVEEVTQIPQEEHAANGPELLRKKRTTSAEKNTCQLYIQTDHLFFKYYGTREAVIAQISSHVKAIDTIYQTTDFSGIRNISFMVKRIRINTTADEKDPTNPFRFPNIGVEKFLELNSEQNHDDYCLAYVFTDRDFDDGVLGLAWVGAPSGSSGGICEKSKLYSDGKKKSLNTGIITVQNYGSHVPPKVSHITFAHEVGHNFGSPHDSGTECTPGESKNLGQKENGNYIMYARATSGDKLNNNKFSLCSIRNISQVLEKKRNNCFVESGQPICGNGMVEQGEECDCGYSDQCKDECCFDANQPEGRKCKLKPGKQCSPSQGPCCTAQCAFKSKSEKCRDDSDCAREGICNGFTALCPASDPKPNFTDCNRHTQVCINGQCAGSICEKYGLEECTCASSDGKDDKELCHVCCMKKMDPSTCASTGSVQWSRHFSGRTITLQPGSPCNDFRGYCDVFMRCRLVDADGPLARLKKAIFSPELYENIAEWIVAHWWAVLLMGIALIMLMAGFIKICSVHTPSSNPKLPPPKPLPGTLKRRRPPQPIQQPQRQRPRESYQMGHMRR
Protocol: mADAM-10 or hADAM-10 activity was measured as the ability to cleave a 10-residue peptide (DABCYL-Leu-Leu-Ala-Gln-Lys-*-Leu-Arg-Ser-Ser-Arg-EDANS). […] Enzyme was diluted to a final active concentration of 5 nM in Buffer A (50 mM HEPES 8.0, 100 mM NaCl, 1 mM CaCl2 and 0.01% NP-40). Serial dilutions for compounds were performed ranging from 100 μM to 0.5 nM using a Beckman Biomek 2000 in polypropylene plates (Greiner). […] This reaction was incubated for 16 hr at RT and fluorescence was read using identical conditions.

COCCOC(=O)N1CCN(S(=O)(=O)c2cc(F)c(Oc3ccc(Cl)cc3)c(F)c2)[C@@H](C(=O)NO)C1 [Entry 15]
degree of elastin damage and inflammatory cell inflammation versus dose [1]: inversely correlated with the dose of the agent administered | mean % ΔAD (increase in aortic diameter at 2 weeks) ([2]; 125 mg/kg/day): 129.3±5.1% | animals which did not develop aneurysms ([2]; 250 mg/kg/day, daily gavage): 12% | mean % ΔAD (increase in aortic diameter at 2 weeks) ([2]; 250 mg/kg/day): 119.2±14.1% | aortic diameters at harvest compared with control animals ([2]; all doses (50, 125, 250 mg/kg/day)): significantly smaller than control animals | animals that developed maximal diameters greater than 100% ([2]; low (50 mg/kg/day) and intermediate (125 mg/kg/day) dose groups): All animals | mean % ΔAD (increase in aortic diameter at 2 weeks) ([2]; lowest dose (50 mg/kg/day)): 140.4±3.2%

C[C@H]1c2cccc(O)c2C(=O)C2=C(O)[C@]3(O)C(=O)C(C(N)=O)=C(O)[C@@H](N(C)C)[C@@H]3[C@@H](O)[C@@H]21 [doxycycline, reference compound]
animals not reaching the threshold designated for aneurysms (% ΔAD greater than 100%) ([2]; doxycycline in drinking water, 100 mg/kg/day): 13% | mean % ΔAD (percentage increase in aortic diameter at 2 weeks compared to baseline) ([2]; doxycycline in drinking water, 100 mg/kg/day, n=15, Mean±SE): 112.2±2.0%

CCCC(CCC)C(=O)N1CCN(S(=O)(=O)c2cc(F)c(Oc3ccc(Cl)cc3)c(F)c2)[C@@H](C(=O)NO)C1 [Entry 44]
IC50 (mADAM-10 or hADAM-10): < 50 nM

CN(C)C(=O)CN1CCN(S(=O)(=O)c2cc(F)c(Oc3ccc(Cl)cc3)c(F)c2)[C@@H](C(=O)NO)C1 [Entry 20]
IC50 (mADAM-10 or hADAM-10): < 50 nM

O=C(NO)[C@H]1CN(C(=O)OCCN2CCCCC2)CCN1S(=O)(=O)c1cc(F)c(Oc2ccc(Cl)cc2)c(F)c1 [Entry 27]
IC50 (mADAM-10 or hADAM-10): < 50 nM

O=C(NO)[C@H]1CN(C(=O)N2CCOCC2)CCN1S(=O)(=O)c1ccc(-c2cccc(F)c2)nc1 [Entry 58]
IC50 (mADAM-10 or hADAM-10): < 50 nM

O=C(NO)[C@H]1CN(S(=O)(=O)NC(=O)N2CCOCC2)CCN1S(=O)(=O)c1cc(F)c(Oc2ccc(Cl)cc2)c(F)c1 [Entry 38]
IC50 (mADAM-10 or hADAM-10): < 50 nM

O=C(NO)[C@H]1CN(C(=O)C(=O)N2CCCCC2)CCN1S(=O)(=O)c1cc(F)c(Oc2ccc(Cl)cc2)c(F)c1 [Entry 35]
IC50 (mADAM-10 or hADAM-10): < 50 nM

From patent publication US20110082114A1, “Methods of Treating Aneurysmal Dilatation, Blood Vessel Wall Weakness and Specifically Abdominal Aortic and Thoracic Aneurysm Using Matrix Metalloprotease-2 Inhibitors” (SYMPHONY EVOLUTION, INC., priority 2009, published 2011)
